Test results as given in US7491819B1 (priority 2004, dated 2009).
Like-named read-outs stand apart in the source and are kept apart here.

Tests used:
HIV-integrase = molecular target: T1, HIV-integrase (Human immunodeficiency virus type 1 group M subtype B, UniProt P12497); assay: HIV-Integrase Inhibition Activity (SPA bead strand-transfer assay); type: biochemical
T1 construct: Recombinant integrase (0.26 ng) was incubated with the beads
Summary of the method: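 Biotin-labelled substrate DNA (5 pmole) bound to streptavidin SPA beads, preloaded with recombinant integrase (0.26 ng) for 90 min at 37° C, then washed. Inhibitors and 0.1 fmol P33-labelled target DNA added; reaction stopped with 10 mM EDTA. Integration read as scintillation CPM.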

NL-Rluc virus = assay: Inhibition of HIV replication (recombinant NL-Rluc virus, luciferase); type: cell-based
[1] = Table 2a, read-out: HIV-Integrase Inhibition Activity
[2] = Human immunodeficiency virus 1, read-out: Inhibition of HIV replication
[3] = Human immunodeficiency virus 1, Table 2, serum condition not stated (10% FBS, 15 mg/ml human serum albumin/10% FBS or 40% human serum/5% FBS), at least 2 experiments, read-out: Activity (inhibition of HIV replication, EC50 class)

With `Cc1nncn1-c1cc(F)ccc1CNC(=O)c1nc2n(c(=O)c1O)CCOC2(C)C` [Example 303, Pyrimido[2,1-c][1,4]oxazine-2-carboxamide, N-[[4-fluoro-2-(3-methyl-4H-1,2,4-triazol-4-yl)phenyl]methyl]-4,6,7,9-tetrahydro-3-hydroxy-9,9-dimethyl-4-oxo-] the IC50 (HIV-integrase; [1]) was 100 to 1000 nM and the EC50 (NL-Rluc virus; [2]) was > 1000 nM.

In the case of `CC1(C)OCCn2c1nc(C(=O)NCc1ccc(F)cc1OC(=O)N1CCOCC1)c(O)c2=O` [Example 99, 4-Morpholinecarboxylic acid, 5-fluoro-2-[[[(4,6,7,9-tetrahydro-3-hydroxy-9,9-dimethyl-4-oxopyrimido[2,1-c][1,4]oxazin-2-yl)carbonyl]amino]methyl]phenyl ester], the IC50 (HIV-integrase) is reported as 2 to 100 nM and the EC50 (NL-Rluc virus; [3]) is reported as 3 to 100 nM.

`Cc1nc(C)n(-c2cc(F)ccc2CNC(=O)c2nc3n(c(=O)c2O)CCOC3(C)C)n1` [Example 307, Pyrimido[2,1-c][1,4]oxazine-2-carboxamide, N-[[2-(3,5-dimethyl-1H-1,2,4-triazol-1-yl)-4-fluorophenyl]methyl]-4,6,7,9-tetrahydro-3-hydroxy-9,9-dimethyl-4-oxo-] gave an IC50 (HIV-integrase; [1]) of 2 to 100 nM and an EC50 (NL-Rluc virus; [2]) of 3 to 100 nM.

For `CCSc1cc(F)ccc1CNC(=O)c1nc2n(c(=O)c1O)CCOC2(C)C` [Example 311, Pyrimido[2,1-c][1,4]oxazine-2-carboxamide, N-[[2-(ethylthio)-4-fluorophenyl]methyl]-4,6,7,9-tetrahydro-3-hydroxy-9,9-dimethyl-4-oxo-], the IC50 (HIV-integrase; [1]) was 2 to 100 nM and the EC50 (NL-Rluc virus; [2]) was 3 to 100 nM.

Molecule `CC(=O)OCCSc1cc(F)ccc1CNC(=O)c1nc2n(c(=O)c1O)CCOC2(C)C` [Example 309, Pyrimido[2,1-c][1,4]oxazine-2-carboxamide, N-[[2-[[2-(acetyloxy)ethyl]thio]-4-fluorophenyl]methyl]-4,6,7,9-tetrahydro-3-hydroxy-9,9-dimethyl-4-oxo-] has an IC50 (HIV-integrase; [1]) of 2 to 100 nM and an EC50 (NL-Rluc virus; [2]) of 3 to 100 nM.

`CC1(C)OCCn2c1nc(C(=O)NCc1ccc(F)cc1-n1ccnn1)c(O)c2=O` [Example 295, Pyrimido[2,1-c][1,4]oxazine-2-carboxamide, N-[[4-fluoro-2-(1H-1,2,3-triazol-1-yl)phenyl]methyl]-4,6,7,9-tetrahydro-3-hydroxy-9,9-dimethyl-4-oxo-] gave an IC50 (HIV-integrase; [1]) of 2 to 100 nM and an EC50 (NL-Rluc virus; [2]) of 3 to 100 nM.

In the case of `Cc1ncnn1-c1cc(F)ccc1CNC(=O)c1nc2n(c(=O)c1O)CCCOC2(C)C` [Example 316, 6H-Pyrimido[2,1-c][1,4]oxazepine-2-carboxamide, N-[[4-fluoro-2-(5-methyl-1H-1,2,4-triazol-1-yl)phenyl]methyl]-4,7,8,10-tetrahydro-3-hydroxy-10,10-dimethyl-4-oxo-], the IC50 (HIV-integrase; [1]) is reported as 2 to 100 nM and the EC50 (NL-Rluc virus; [2]) is reported as 3 to 100 nM.

For `CC1(C)OCCn2c1nc(C(=O)NCc1ccc(F)cc1S(=O)(=O)CCO)c(O)c2=O` [Example 312, Pyrimido[2,1-c][1,4]oxazine-2-carboxamide, N-[[4-fluoro-2-[(2-hydroxyethyl)sulfonyl]phenyl]methyl]-4,6,7,9-tetrahydro-3-hydroxy-9,9-dimethyl-4-oxo-], the IC50 (HIV-integrase; [1]) was 2 to 100 nM and the EC50 (NL-Rluc virus; [2]) was 3 to 100 nM.

Work on `CC(C)(C)c1cn(-c2cc(F)ccc2CNC(=O)c2nc3n(c(=O)c2O)CCCOC3(C)C)nn1` [Example 301, 6H-Pyrimido[2,1-c][1,4]oxazepine-2-carboxamide, N-[[2-[4-(1,1-dimethylethyl)-1H-1,2,3-triazol-1-yl]-4-fluorophenyl]methyl]-4,7,8,10-tetrahydro-3-hydroxy-10,10-dimethyl-4-oxo-] yielded an IC50 (HIV-integrase; [1]) of 2 to 100 nM and an EC50 (NL-Rluc virus; [2]) of 3 to 100 nM.

For `CC1(C)OCCCn2c1nc(C(=O)NCc1ccc(F)cc1N1CCOC1=O)c(O)c2=O` [Example 304, 6H-Pyrimido[2,1-c][1,4]oxazepine-2-carboxamide, N-[[4-fluoro-2-(2-oxo-3-oxazolidinyl)phenyl]methyl]-4,7,8,10-tetrahydro-3-hydroxy-10,10-dimethyl-4-oxo-], the IC50 (HIV-integrase; [1]) was 2 to 100 nM and the EC50 (NL-Rluc virus; [2]) was 3 to 100 nM.

For `Cc1cnnn1-c1cc(F)ccc1CNC(=O)c1nc2n(c(=O)c1O)CCOC2(C)C` [Example 296, Pyrimido[2,1-c][1,4]oxazine-2-carboxamide, N-[[4-fluoro-2-(5-methyl-1H-1,2,3-triazol-1-yl)phenyl]methyl]-4,6,7,9-tetrahydro-3-hydroxy-9,9-dim ethyl-4-oxo-], the IC50 (HIV-integrase; [1]) was 2 to 100 nM and the EC50 (NL-Rluc virus; [2]) was 3 to 100 nM.

Molecule `Cc1nnn(-c2cc(F)ccc2CNC(=O)c2nc3n(c(=O)c2O)CCOC3(C)C)c1C` [Example 298, Pyrimido[2,1-c][1,4]oxazine-2-carboxamide, N-[[2-(4,5-dimethyl-1H-1,2,3-triazol-1-yl)-4-fluorophenyl]methyl]-4,6,7,9-tetrahydro-3-hydroxy-9,9-dimethyl-4-oxo-] has an IC50 (HIV-integrase; [1]) of 2 to 100 nM and an EC50 (NL-Rluc virus; [2]) of 3 to 100 nM.

Molecule `COP(=O)(OC)c1cc(F)ccc1CNC(=O)c1nc2n(c(=O)c1O)CCCOC2(C)C` [Example 318, Phosphonic acid, [5-fluoro-2-[[[(4,7,8,10-tetrahydro-3-hydroxy-10,10-dimethyl-4-oxo-6H-pyrimido[2,1-c][1,4]oxazepin-2-yl)carbonyl]amino]methyl]phenyl]-, dimethyl ester] has an IC50 (HIV-integrase; [1]) of 2 to 100 nM and an EC50 (NL-Rluc virus; [2]) of 3 to 100 nM.

`CC(C)(C)c1cn(-c2cc(F)ccc2CNC(=O)c2nc3n(c(=O)c2O)CCOC3(C)C)nn1` [Example 297, Pyrimido[2,1-c][1,4]oxazine-2-carboxamide, N-[[2-[4-(1,1-dimethylethyl)-1H-1,2,3-triazol-1-yl]-4-fluorophenyl]methyl]-4,6,7,9-tetrahydro-3-hydroxy-9,9-dimethyl-4-oxo-] showed an IC50 (HIV-integrase; [1]) of 2 to 100 nM and an EC50 (NL-Rluc virus; [2]) of 3 to 100 nM.

With `CC1(C)OCCn2c1nc(C(=O)NCc1ccc(F)cc1-n1ncnc1CO)c(O)c2=O` [Example 308, Pyrimido[2,1-c][1,4]oxazine-2-carboxamide, N-[[4-fluoro-2-[5-(hydroxymethyl)-1H-1,2,4-triazol-1-yl]phenyl]methyl]-4,6,7,9-tetrahydro-3-hydroxy-9,9-dimethyl-4-oxo-] the IC50 (HIV-integrase; [1]) was 2 to 100 nM and the EC50 (NL-Rluc virus; [2]) was 3 to 100 nM.

With `CC1(C)OCCn2c1nc(C(=O)NCc1ccc(F)cc1-n1cc(CO)nn1)c(O)c2=O` [Example 299, Pyrimido[2,1-c][1,4]oxazine-2-carboxamide, N-[[4-fluoro-2-[4-(hydroxymethyl)-1H-1,2,3-triazol-1-yl]phenyl]methyl]-4,6,7,9-tetrahydro-3-hydroxy-9,9-dimethyl-4-oxo-] the IC50 (HIV-integrase; [1]) was 2 to 100 nM and the EC50 (NL-Rluc virus; [2]) was 3 to 100 nM.

`CC1(C)COP(=O)(c2cc(F)ccc2CNC(=O)c2nc3n(c(=O)c2O)CCOC3(C)C)OC1` [Example 294, Pyrimido[2,1-c][1,4]oxazine-2-carboxamide, N-[[2-(5,5-dimethyl-2-oxido-1,3,2-dioxaphosphorinan-2-yl)-4-fluorophenyl]methyl]-4,6,7,9-tetrahydro-3-hydroxy-9,9-dimethyl-4-oxo-] was tested, and the IC50 (HIV-integrase; [1]) was 2 to 100 nM and the EC50 (NL-Rluc virus; [2]) was 3 to 100 nM.

Work on `CC1(C)OCCn2c1nc(C(=O)NCc1ccc(F)cc1P(=O)(OCCO)OCCO)c(O)c2=O` [Example 293, Phosphonic acid, [5-fluoro-2-[[[(4,6,7,9-tetrahydro-3-hydroxy-9,9-dimethyl-4-oxopyrimido[2,1-c][1,4]oxazin-2-yl)carbonyl]amino]methyl]phenyl]-, bis(2-hydroxyethyl) ester] yielded an IC50 (HIV-integrase; [1]) of 2 to 100 nM and an EC50 (NL-Rluc virus; [2]) of 100 to 1000 nM.

For `Cc1nnn(-c2cc(F)ccc2CNC(=O)c2nc3n(c(=O)c2O)CCOCC3(C)C)c1C` [Example 302, 4H-Pyrimido[1,2-d][1,4]oxazepine-2-carboxamide, N-[[2-(4,5-dimethyl-1H-1,2,3-triazol-1-yl)-4-fluorophenyl]methyl]-6,7,9,10-tetrahydro-3-hydroxy-10,10-dimethyl-4-oxo-], the IC50 (HIV-integrase; [1]) was 2 to 100 nM and the EC50 (NL-Rluc virus; [2]) was 3 to 100 nM.

For `CN(C)C(=O)Oc1cc(F)ccc1CNC(=O)c1nc2n(c(=O)c1O)CCOC2(C)C` [Example 96, Carbamic acid, dimethyl-, 5-fluoro-2-[[[(4,6,7,9-tetrahydro-3-hydroxy-9,9-dimethyl-4-oxopyrimido[2,1-c][1,4]oxazin-2-yl)carbonyl]amino]methyl]phenyl ester], the IC50 (HIV-integrase) was 2 to 100 nM and the EC50 (NL-Rluc virus; [3]) was 3 to 100 nM.

`COP(=O)(O)c1cc(F)ccc1CNC(=O)c1nc2n(c(=O)c1O)CCOC2(C)C` [Example 290, Phosphonic acid, [5-fluoro-2-[[[(4,6,7,9-tetrahydro-3-hydroxy-9,9-dimethyl-4-oxopyrimido[2,1-c][1,4]oxazin-2-yl)carbonyl]amino]methyl]phenyl]-, monomethyl ester] was tested, and the IC50 (HIV-integrase; [1]) was 2 to 100 nM and the EC50 (NL-Rluc virus; [2]) was 100 to 1000 nM.

With `CCC1(C)OCCn2c1nc(C(=O)NCc1ccc(F)cc1S(=O)(=O)N(C)C)c(O)c2=O` (stereo not drawn) [Example 315, Pyrimido[2,1-c][1,4]oxazine-2-carboxamide, N-[[2-[(dimethylamino)sulfonyl]-4-fluorophenyl]methyl]-9-ethyl-4,6,7,9-tetrahydro-3-hydroxy-9-methyl-4-oxo-] the IC50 (HIV-integrase; [1]) was 2 to 100 nM and the EC50 (NL-Rluc virus; [2]) was 3 to 100 nM.

For `CC1(C)OCCn2c1nc(C(=O)NCc1ccc(F)cc1P(=O)(O)OCCO)c(O)c2=O` [Example 292, Phosphonic acid, [5-fluoro-2-[[[(4,6,7,9-tetrahydro-3-hydroxy-9,9-dimethyl-4-oxopyrimido[2,1-c][1,4]oxazin-2-yl)carbonyl]amino]methyl]phenyl]-, mono(2-hydroxyethyl) ester], the IC50 (HIV-integrase; [1]) was 2 to 100 nM and the EC50 (NL-Rluc virus; [2]) was > 1000 nM.

With `CC1(C)OCCn2c1nc(C(=O)NCc1ccc(F)cc1P(=O)(O)O)c(O)c2=O` [Example 289, Phosphonic acid, [5-fluoro-2-[[[(4,6,7,9-tetrahydro-3-hydroxy-9,9-dimethyl-4-oxopyrimido[2,1-c][1,4]oxazin-2-yl)carbonyl]amino]methyl]phenyl]-] the IC50 (HIV-integrase; [1]) was 2 to 100 nM and the EC50 (NL-Rluc virus; [2]) was > 1000 nM.
